The values that follow come from EPA's ToxValDB 9.5 (doi:10.2903/j.efsa.2008.170r).

Molecules are shown by their SMILES.

One data set relates to Apis mellifera. Particulars: acute; dermal; mortality.
In another data set the test system is Bird. Particulars: chronic/long-term; mortality.
Another data set has as its system Canidae. Particulars: chronic; duration: 1 years; oral; Dog Other; body weight.
The next data set deals with Daphnia magna. Particulars: chronic/long-term.
The test system of another data set is Rattus norvegicus. Particulars: acute; mortality.
Another data set has as its system Typhlodromus pyri. Particulars: not reported; mortality.

As a reminder, the NOAEL is the highest dose or exposure tested at which no adverse effect was seen.

In the case of `CC(=O)O.CC1CN(C2CCCCCCCCCCC2)CC(C)O1` (configuration not stated) [Dodemorph acetate], the LD50 was above 76.6 µg/piece in the data set with Apis mellifera; 9.4 mg/kg-day in the data set on Bird; 21 mg/kg-day in the data set with Oryctolagus sp. (acute, mortality); 4100 mg/kg in the data set with Rattus norvegicus. In addition, the NOAEL in the data set on Canidae came out at 10 mg/kg-day; in the data set on Oryctolagus sp. (developmental, development), 40 mg/kg-day. In addition, the NOEC in the data set on Daphnia magna was determined as 0.08 mg/L; in the data set on Oncorhynchus mykiss (chronic/long-term, duration: 28 days, growth), 0.1 mg/L; in the data set on Tagia sp. (chronic/long-term, duration: 56 days, other) it was 103 mg/kg. Also, the LC50 in the data set on Oncorhynchus mykiss (acute, duration: 96 hours, mortality) was 1.23 µg/mL; with Tagia sp. (acute, duration: 14 days, mortality) it was above 824 mg/kg. Further, the LEL in the data set on Typhlodromus pyri is 660 g/ha.
